One experiment concerns the target PP2A (Homo sapiens, UniProt P67775). As to conditions: cited from earlier work.
The target in experiment [1] is T1, cytosolic Xu-5-P activated PPase (Rattus norvegicus, UniProt P63331).
T1 construct: from tissue; host or cells: rat liver cytosolic extract, DEAE-cellulose then Mono Q
The experiment in a line: Protein phosphatase assay, cytosolic Xu-5-P activated PPase of liver. The experiment is classed as biochemical. As to conditions: for inhibition of cytosolic PPase (MonoQ eluate): okadaic acid concentration not stated (below 10 nM). The method, then:
Liver was homogenized in a motor-driven Potter-Elvehjem homogenizer in 1 volume of extraction buffer containing 10 mM Hepes (pH 7.9), 10 mM KCl, 0.1 mM EDTA, 0.74 mM spermidine, 0.25 M sucrose, 50 mM imidazole, 1 mM dithiothreitol (DTT), 4 mM phenylmethanesulfonyl fluoride, and 1 mM benzamidine, and the extract was centrifuged at 10,000×g for 30 min.
(§1) Synthetic peptides corresponding to amino acids #187-201 ([…] “P1” peptide) (SEQ ID NO:64), #556-573 ([…], “P4” peptide) (SEQ ID NO:65), and #655-674 ([…]; “P3” peptide) (SEQ ID NO:66), of ChREBP were prepared by the Peptide Synthesis Service of University of Texas Southwestern Medical Center. These peptides were phosphorylated by 10 U of PKA for 6 h at 30° C. P4 peptide corresponding to 556-573 ([…]) (SEQ ID NO:65), was phosphorylated by 10 U of AMPK for 5 h at 30° C. The reaction mixtures were passed through on a Dowex AG1X8 column (0.5 cm×5 cm) which had been equilibrated with 30% acetic acid to remove residual [^32P]-ATP. The labeled peptides in the pass through fraction were lyophilized.
(§2) Protein phosphatase activity was determined by the method of Deana et al (Deana et al. (1990) Biochem, Biophys. Acta. 1051: 199-202). The reaction mixture contained in a final volume of 50 μ1,20 mM MOPS, pH 7.0, 1 mM DTT, 25 μg of BSA, and ^32P-labeled substrate for 15 min at 30° C. The reaction was terminated by the addition of 10% trichloroacetic acid. Phosphate released was converted to a phosphomolybdic complex followed by organic solvent (isobutyl alcohol:heptane, 1:1) extraction of the complex. The reaction mixture was mixed thoroughly and centrifuged. An aliquot of the top layer was then added to 5 ml scintillation fluid and counted. One unit of protein phosphatase is defined as that amount which catalyzes the release of 1.0 μmol of ^32P/min at 30° C.
(§3) These peptides were assayed with Mono Q purified cytosolic and nuclear PPases in the presence and absence of 50 μM Xu-5-P.

The target of experiment [2] is T2, nuclear Xu-5-P activated PPase (Rattus norvegicus, UniProt P63331).
T2 construct: from tissue; host or cells: rat liver nuclear extract, DEAE-cellulose then Mono Q
T2 sequence (P63331 whole entry): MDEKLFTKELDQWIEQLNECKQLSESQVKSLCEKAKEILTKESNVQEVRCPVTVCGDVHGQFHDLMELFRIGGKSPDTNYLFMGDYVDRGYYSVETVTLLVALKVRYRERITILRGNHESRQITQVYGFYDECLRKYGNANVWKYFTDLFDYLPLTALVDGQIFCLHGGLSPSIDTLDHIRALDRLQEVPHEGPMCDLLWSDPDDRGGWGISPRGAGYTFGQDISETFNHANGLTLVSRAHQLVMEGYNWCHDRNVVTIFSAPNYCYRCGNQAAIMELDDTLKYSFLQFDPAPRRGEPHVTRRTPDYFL
T2 sequence (P56932 whole entry partner): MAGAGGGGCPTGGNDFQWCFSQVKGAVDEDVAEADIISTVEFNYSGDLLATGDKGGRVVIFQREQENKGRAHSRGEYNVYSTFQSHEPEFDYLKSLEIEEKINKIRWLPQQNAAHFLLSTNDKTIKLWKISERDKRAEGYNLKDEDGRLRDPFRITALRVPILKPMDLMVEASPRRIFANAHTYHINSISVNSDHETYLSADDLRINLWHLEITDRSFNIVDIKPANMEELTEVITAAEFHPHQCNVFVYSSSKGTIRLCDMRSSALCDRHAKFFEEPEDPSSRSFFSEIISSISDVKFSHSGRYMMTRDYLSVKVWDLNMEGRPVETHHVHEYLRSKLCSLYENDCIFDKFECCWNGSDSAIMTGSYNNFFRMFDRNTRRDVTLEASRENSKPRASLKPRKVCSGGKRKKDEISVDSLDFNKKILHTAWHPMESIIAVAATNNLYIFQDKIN
T2 sequence (Q5XI34 1-589 partner): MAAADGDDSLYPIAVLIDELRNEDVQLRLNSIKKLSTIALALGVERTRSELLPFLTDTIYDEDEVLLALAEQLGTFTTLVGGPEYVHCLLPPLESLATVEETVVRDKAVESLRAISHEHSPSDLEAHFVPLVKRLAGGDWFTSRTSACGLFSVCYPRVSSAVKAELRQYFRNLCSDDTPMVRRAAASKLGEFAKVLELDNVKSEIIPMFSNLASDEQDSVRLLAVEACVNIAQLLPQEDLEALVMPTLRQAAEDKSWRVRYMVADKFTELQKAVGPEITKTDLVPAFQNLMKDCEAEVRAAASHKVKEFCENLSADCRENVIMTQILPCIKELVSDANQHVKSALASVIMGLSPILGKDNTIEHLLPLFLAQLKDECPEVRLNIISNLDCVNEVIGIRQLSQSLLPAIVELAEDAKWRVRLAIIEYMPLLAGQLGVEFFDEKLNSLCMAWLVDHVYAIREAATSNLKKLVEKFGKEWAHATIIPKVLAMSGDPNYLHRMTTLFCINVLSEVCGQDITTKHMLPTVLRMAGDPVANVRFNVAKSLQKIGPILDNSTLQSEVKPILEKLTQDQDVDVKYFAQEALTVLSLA
The experiment in a line: Protein phosphatase assay, nuclear Xu-5-P activated PPase of liver. In kind it is biochemical. Conditions: read-out: inhibition of nuclear Xu-5-P-activated PPase (Mono Q eluate); for inhibition at 0.001 µM: 1 nM okadaic acid, P3 substrate. The method, then:
Liver nuclear extracts were prepared as described in Example 1.
as §1, §2, §3

The next experiment relates to ChREBP. Put plainly: Gel shift of purified ChREBP after incubation with PKA/PP2A in vitro. The experiment is classed as biochemical, rat. As to conditions: okadaic acid 10 nM. The method, then:
Gel shift assay. Gel mobility shift assays were performed as described by Liu et al. (Liu et al. (1993) J Biol Chem 268, 12787-12795). Double-stranded oligonucleotides (Table 1) were prepared by mixing equal amounts of the complementary single-stranded DNAs in 50 mM NaCl, heating to 70° C. for 15 min, and cooling to room temperature. The annealed oligonucleotides were labeled with ^32P in the presence of [γ^32P]-ATP (Amersham Pharmacia) and T4 polynucleotide kinase (New England Biolabs). Binding reactions were carried out in reaction mixture containing 20 mM Hepes (pH 7.9), 50 mM KCl, 5 mM DTT, 0.2 mM EDTA, 0.5 mM PMSF, 10% glycerol, 1 μg/μl of poly(dI-dC) (Amersham Pharmacia) and 1 μg/μl of nuclear extract. The reaction mixture was incubated at room temperature for 30 min and DNA-protein complexes were separated by electrophoresis in a 4.5% nondenaturing polyacrylamide gel.
Purified ChREBP was incubated with PKA and/or PP2A in vitro and measured by gel-shift analysis with the [^32P]-radiolabeled WT oligonucleotide. Purified ChREBP was incubated for 20 min with ATP (1 mM), PKA (0.1 U/μl), 0.2 U/μl PKI, 0.025 U/μl PP2A and the PP2A inhibitor, okadaic acid (10 nM).
Background: A gel shift assay detects complexes by their altered migration in electrophoresis.

Where two headings read alike, the source gives them in different places.

T1 sequence (P63331 whole entry): as the sequence (P63331 whole entry) above
T1 sequence (P56932 whole entry partner): as the sequence (P56932 whole entry partner) above
T1 sequence (Q5XI34 1-589 partner): as the sequence (Q5XI34 1-589 partner) above
Chain of PP2A (P67775 whole entry): as the sequence (P63331 whole entry) above, with L5V counted along it

Take `C=C1[C@@H](O)[C@@H]2O[C@]3(CC[C@H](/C=C/[C@@H](C)[C@@H]4CC(C)=C[C@@]5(O[C@H](C[C@@](C)(O)C(=O)O)CC[C@H]5O)O4)O3)CC[C@H]2O[C@@H]1[C@@H](O)C[C@H](C)[C@H]1O[C@@]2(CCCCO2)CC[C@H]1C` [okadaic acid]: the half-inhibitory concentration (IC50) on PP2A was 1 nM. The “inhibition of cytosolic PPase (MonoQ eluate)” value in experiment [1] (absence of Xu-5-P) is “approximately 65%”; in experiment [1] (presence of Xu-5-P), ~50%. Further, the “inhibition of cytosolic Xu-5-P activated PPase (in words)” value in experiment [1] (okadaic acid 10 nM (absence and presence of Xu-5-P), cantharidic acid 500 nM, deltamethrin 300 nM) was “completely”. Moreover, the inhibition at 0.001 µM in experiment [2] (absence of Xu-5-P) was determined as 63%; in experiment [2] (presence of Xu-5-P) it was 70%. In addition, in experiment [2] (10 nM okadaic acid), the inhibition at 0.01 µM was > 95%. Besides, in the experiment with ChREBP, the “reactivation of phosphorylated ChREBP by PP2A” value is listed as “blocked”.

As usually defined, the IC50 is the midpoint of a concentration-inhibition curve. What is called inhibition is the percentage by which the read-out fell short of the control.

Values taken from patent US20030124590A1, “Carbohydrate response element binding protein and uses thereof” (priority 2001, published 2003).
